Data on 15 molecules can be found in patent publication US8754068B2, “Modified C-3 betulinic acid derivatives as HIV maturation inhibitors” (priority 2010, dated 2014).

SMILES strings stand for the structures.

The subject of this test is recombinant NL4-3 virus (Renilla luciferase in nef, Gag P373S). Briefly: HIV cell culture assay (luciferase reporter virus in MT-2 cells). It is filed as cell-based. The note with it: NL43. How it is done:
HIV cell culture assay—MT-2 cells and 293T cells were obtained from the NIH AIDS Research and Reference Reagent Program. MT-2 cells were propagated in RPMI 1640 media supplemented with 10% heat inactivated fetal bovine serum, […]. The 293T cells were propagated in DMEM media supplemented with 10% heat inactivated fetal bovine serum (FBS), 100 units/ml penicillin G and 100 μg/ml streptomycin. The proviral DNA clone of NL4-3 was obtained from the NIH AIDS Research and Reference Reagent Program. A recombinant NL4-3 virus, in which a section of the nef gene from NL4-3 was replaced with the Renilla luciferase gene, was used as a reference virus. In addition, residue Gag P373 was converted to P373S. Briefly, the recombinant virus was prepared by transfection of the altered proviral clone of NL4-3. Transfections were performed in 293T cells using LipofectAMINE PLUS from Invitrogen (Carlsbad, Calif.), according to manufacturer's instruction. The virus was titered in MT-2 cells using luciferase enzyme activity as a marker. Luciferase was quantitated using the Dual Luciferase kit from Promega (Madison, Wis.), with modifications to the manufacturer's protocol. The diluted Passive Lysis solution was pre-mixed with the re-suspended Luciferase Assay Reagent and the re-suspended Stop & Glo Substrate (2:1:1 ratio). Fifty (50) μL of the mixture was added to each aspirated well on assay plates and luciferase activity was measured immediately on a Wallac TriLux (Perkin-Elmer). Antiviral activities of inhibitors toward the recombinant virus were quantified by measuring luciferase activity in cells infected for 4-5 days with NLRluc recombinants in the presence serial dilutions of the inhibitor. Table 1 is the key for the data in Table 2.
In the case of `C=C(C)[C@@H]1CC[C@]2(CO)CC[C@]3(C)[C@H](CC[C@@H]4[C@@]5(C)CC=C(c6ccc(S(N)(=O)=O)cc6)C(C)(C)[C@@H]5CC[C@]43C)[C@@H]12` [Example 5j, 4-((1R,3aS,5aR,5bR,7aR,11aS,11bR,13aR,13bR)-3a-(hydroxymethyl)-5a,5b,8,8,11a-pentamethyl-1-(prop-1-en-2-yl)-2,3,3a,4,5,5a,5b,6,7,7a,8,11,11a,11b,12,13,13a,13b-octadecahydro-1H-cyclopenta[a]chrysen-9-yl)benzenesulfonamide], the EC50 is less than 1000 nM.
Under `C=C(C)[C@@H]1CC[C@]2(CO)CC[C@]3(C)[C@H](CC[C@@H]4[C@@]5(C)CC=C(c6ccc(C(=O)O)cc6F)C(C)(C)[C@@H]5CC[C@]43C)[C@@H]12` [Example 5k, 3-fluoro-4-((1R,3aS,5aR,5bR,7aR,11aS,11bR,13aR,13bR)-3a-(hydroxymethyl)-5a,5b,8,8,11a-pentamethyl-1-(prop-1-en-2-yl)-2,3,3a,4,5,5a,5b,6,7,7a,8,11,11a,11b,12,13,13a,13b-octadecahydro-1H-cyclopenta[a]chrysen-9-yl)benzoic acid] stands less than 1000 nM.
Under `C=C(C)[C@@H]1CC[C@]2(CO)CC[C@]3(C)[C@H](CC[C@@H]4[C@@]5(C)CC=C(c6ccc(-c7nn[nH]n7)cc6)C(C)(C)[C@@H]5CC[C@]43C)[C@@H]12` [Example 5l, ((1R,3aS,5aR,5bR,7aR,11aS,11bR,13aR,13bR)-9-(4-(2H-tetrazol-5-yl)phenyl)-5a,5b,8,8,11a-pentamethyl-1-(prop-1-en-2-yl)-2,3,3a,4,5,5a,5b,6,7,7a,8,11,11a,11b,12,13,13a,13b-octadecahydro-1H-cyclopenta[a]chrysen-3a-yl)methanol] stands more than 1000 nM; under `C=C(C)[C@@H]1CC[C@]2(CO)CC[C@]3(C)[C@H](CC[C@@H]4[C@@]5(C)CC=C(c6ccc(C(=O)O)c(F)c6)C(C)(C)[C@@H]5CC[C@]43C)[C@@H]12` [Example 5m, 2-fluoro-4-((1R,3aS,5aR,5bR,7aR,11aS,11bR,13aR,13bR)-3a-(hydroxymethyl)-5a,5b,8,8,11a-pentamethyl-1-(prop-1-en-2-yl)-2,3,3a,4,5,5a,5b,6,7,7a,8,11,11a,11b,12,13,13a,13b-octadecahydro-1H-cyclopenta[a]chrysen-9-yl)benzoic acid], less than 1000 nM; under `C=C(C)[C@@H]1CC[C@]2(CO)CC[C@]3(C)[C@H](CC[C@@H]4[C@@]5(C)CC=C(c6ccc(C(=O)O)cc6Cl)C(C)(C)[C@@H]5CC[C@]43C)[C@@H]12` [Example 5n, 3-chloro-4-((1R,3aS,5aR,5bR,7aR,11aS,11bR,13aR,13bR)-3a-(hydroxymethyl)-5a,5b,8,8,11a-pentamethyl-1-(prop-1-en-2-yl)-2,3,3a,4,5,5a,5b,6,7,7a,8,11,11a,11b,12,13,13a,13b-octadecahydro-1H-cyclopenta[a]chrysen-9-yl)benzoic acid], less than 1000 nM.
Under `C=C(C)[C@@H]1CC[C@]2(CO)CC[C@]3(C)[C@H](CC[C@@H]4[C@@]5(C)CC=C(c6ccc(C(=O)O)c(OC)c6)C(C)(C)[C@@H]5CC[C@]43C)[C@@H]12` [Example 5o, 4-((1R,3aS,5aR,5bR,7aR,11aS,11bR,13aR,13bR)-3a-(hydroxymethyl)-5a,5b,8,8,11a-pentamethyl-1-(prop-1-en-2-yl)-2,3,3a,4,5,5a,5b,6,7,7a,8,11,11a,11b,12,13,13a,13b-octadecahydro-1H-cyclopenta[a]chrysen-9-yl)-2-methoxybenzoic acid] stands 500 nM; under `C=C(C)[C@@H]1CC[C@]2(CO)CC[C@]3(C)[C@H](CC[C@@H]4[C@@]5(C)CC=C(c6ccc(C(=O)O)c(O)c6)C(C)(C)[C@@H]5CC[C@]43C)[C@@H]12` [Example 5p, 2-hydroxy-4-((1R,3aS,5aR,5bR,7aR,11aS,11bR,13aR,13bR)-3a-(hydroxymethyl)-5a,5b,8,8,11a-pentamethyl-1-(prop-1-en-2-yl)-2,3,3a,4,5,5a,5b,6,7,7a,8,11,11a,11b,12,13,13a,13b-octadecahydro-1H-cyclopenta[a]chrysen-9-yl)benzoic acid], less than 1000 nM.
In the case of `C=C(C)[C@@H]1CC[C@]2(CO)CC[C@]3(C)[C@H](CC[C@@H]4[C@@]5(C)CC=C(c6cnc(C(=O)O)nc6)C(C)(C)[C@@H]5CC[C@]43C)[C@@H]12` [Example 5q, 5-((1R,3aS,5aR,5bR,7aR,11aS,11bR,13aR,13bR)-3a-(hydroxymethyl)-5a,5b,8,8,11a-pentamethyl-1-(prop-1-en-2-yl)-2,3,3a,4,5,5a,5b,6,7,7a,8,11,11a,11b,12,13,13a,13b-octadecahydro-1H-cyclopenta[a]chrysen-9-yl)pyrimidine-2-carboxylic acid], the concentration giving a half-maximal response (EC50) was more than 1000 nM.
Consider `C=C(C)[C@@H]1CC[C@]2(CO)CC[C@]3(C)[C@H](CC[C@@H]4[C@@]5(C)CC=C(c6ccc(C(=O)O)cc6C)C(C)(C)[C@@H]5CC[C@]43C)[C@@H]12` [Example 5r, 4-((1R,3aS,5aR,5bR,7aR,11aS,11bR,13aR,13bR)-3a-(hydroxymethyl)-5a,5b,8,8,11a-pentamethyl-1-(prop-1-en-2-yl)-2,3,3a,4,5,5a,5b,6,7,7a,8,11,11a,11b,12,13,13a,13b-octadecahydro-1H-cyclopenta[a]chrysen-9-yl)-3-methylbenzoic acid], for which the EC50 is less than 1000 nM.
Under `C=C(C)[C@@H]1CC[C@]2(CO)CC[C@]3(C)[C@H](CC[C@@H]4[C@@]5(C)CC=C(c6ccc(C(=O)O)c(C(F)(F)F)c6)C(C)(C)[C@@H]5CC[C@]43C)[C@@H]12` [Example 5s, 4-((1R,3aS,5aR,5bR,7aR,11aS,11bR,13aR,13bR)-3a-(hydroxymethyl)-5a,5b,8,8,11a-pentamethyl-1-(prop-1-en-2-yl)-2,3,3a,4,5,5a,5b,6,7,7a,8,11,11a,11b,12,13,13a,13b-octadecahydro-1H-cyclopenta[a]chrysen-9-yl)-2-(trifluoromethyl)benzoic acid] stands less than 1000 nM.
Under `C=C(C)[C@@H]1CC[C@]2(CO)CC[C@]3(C)[C@H](CC[C@@H]4[C@@]5(C)CC=C(c6ccc(C(=O)O)c(C(=O)O)c6)C(C)(C)[C@@H]5CC[C@]43C)[C@@H]12` [Example 5t, 4-((1R,3aS,5aR,5bR,7aR,11aS,11bR,13aR,13bR)-3a-(hydroxymethyl)-5a,5b,8,8,11a-pentamethyl-1-(prop-1-en-2-yl)-2,3,3a,4,5,5a,5b,6,7,7a,8,11,11a,11b,12,13,13a,13b-octadecahydro-1H-cyclopenta[a]chrysen-9-yl)phthalic acid] stands less than 1000 nM; under `C=C(C)[C@@H]1CC[C@]2(CO)CC[C@]3(C)[C@H](CC[C@@H]4[C@@]5(C)CC=C(c6ccc(C(=O)O)cn6)C(C)(C)[C@@H]5CC[C@]43C)[C@@H]12` [Example 5u, 6-((1R,3aS,5aR,5bR,7aR,11aS,11bR,13aR,13bR)-3a-(hydroxymethyl)-5a,5b,8,8,11a-pentamethyl-1-(prop-1-en-2-yl)-2,3,3a,4,5,5a,5b,6,7,7a,8,11,11a,11b,12,13,13a,13b-octadecahydro-1H-cyclopenta[a]chrysen-9-yl)nicotinic acid], less than 1000 nM; under `C=C(C)[C@@H]1CC[C@]2(C(=O)O)CC[C@]3(C)[C@H](CC[C@@H]4[C@@]5(C)CC=C(c6ccc(C(=O)NS(=O)(=O)C(C)C)cc6)C(C)(C)[C@@H]5CC[C@]43C)[C@@H]12` [Example 6a, (1R,3aS,5aR,5bR,7aR,11aS,13aR,13bR)-9-(4-(isopropylsulfonylcarbamoyl)phenyl)-5a,5b,8,8,11a-pentamethyl-1-(prop-1-en-2-yl)-2,3,3a,4,5,5a,5b,6,7,7a,8,11,11a,11b,12,13,13a,13b-octadecahydro-1H-cyclopenta[a]chrysene-3a-carboxylic acid], less than 1000 nM.
Under `C=C(C)[C@@H]1CC[C@]2(C(=O)O)CC[C@]3(C)[C@H](CC[C@@H]4[C@@]5(C)CC=C(c6ccc(C(=O)NS(C)(=O)=O)cc6)C(C)(C)[C@@H]5CC[C@]43C)[C@@H]12` [Example 6b, (1R,3aS,5aR,5bR,7aR,11aS,13aR,13bR)-5a,5b,8,8,11a-pentamethyl-9-(4-(methylsulfonylcarbamoyl)phenyl)-1-(prop-1-en-2-yl)-2,3,3a,4,5,5a,5b,6,7,7a,8,11,11a,11b,12,13,13a,13b-octadecahydro-1H-cyclopenta[a]chrysene-3a-carboxylic acid] stands less than 1000 nM.
Consider `C=C(C)[C@@H]1CC[C@]2(C(=O)O)CC[C@]3(C)[C@H](CC[C@@H]4[C@@]5(C)CC=C(c6ccc(C(=O)OC)cc6)C(C)(C)[C@@H]5CC[C@]43C)[C@@H]12` [Example 7, (1R,3aS,5aR,5bR,7aR,11aS,11bR,13aR,13bR)-9-(4-(methoxycarbonyl)phenyl)-5a,5b,8,8,11a-pentamethyl-1-(prop-1-en-2-yl)-2,3,3a,4,5,5a,5b,6,7,7a,8,11,11a,11b,12,13,13a,13b-octadecahydro-1H-cyclopenta[a]chrysene-3a-carboxylic acid], for which the EC50 was more than 1000 nM.
